Among the data in a melting point compilation (Tetko et al.; mined from patent text by program, amines drawn as free bases though some values may be those of a salt) are melting point values, retold here.

The melting point is the temperature of the solid-liquid transition.

Take `O=C(O)CCNC(=O)C(=Cc1ccc(Oc2ccccc2)cc1)CS`: the melting point was 108 °C.
Next, `Cc1ccc(S(=O)(=O)Nc2cc3c(c(C(=O)O)c2)NCCC3)cc1`: 251 °C; `COCCNC(=O)c1cc2cc(OCCNC[C@H](O)COc3ccccc3)ccc2o1`: 95 to 96 °C.
Next, `COc1nc(N)nc(C(C)C)n1`: 116 to 118 °C; `COC(=O)c1cn2c(=O)c(C)c(C)nc2s1`: 158 to 159 °C; `COC(=O)c1c(C(=O)OC)c2sc3ccccc3n2c1-c1ccc(Cl)cc1`: 172 to 173 °C.
Under `Cc1c(C(=O)c2ccccc2)ccc(O)c1CC(=O)O` stands 212 °C.
As for `CON(c1ccc([N+](=O)[O-])cc1Cl)S(=O)(=O)c1cccc([N+](=O)[O-])c1`, the melting point was in the range of 168 to 169 °C.
Next, `CCOc1ccc2c(c1)n(C13CC4CC(CC(C4)C1)C3)c(=O)n2S(=O)(=O)c1ccc(N)cc1OC`: 248 °C; `c1ccc(N2CCN(c3nsc4ccccc34)CC2)cc1`: 260 to 262 °C; `CNc1nc(C)nc(N2CCCc3ccccc32)n1`: 159 to 160 °C.
Under `O=C(Nc1ccc(-n2nc(C(F)(F)F)cc2C2CC2)nc1)c1ccc2[nH]nnc2c1` stands 236 to 238 °C; under `CN1CCN(Cc2ccc(Cl)cc2Cl)C(C2(C)NCCN2)C1` (centres undefined), 61 to 63 °C.
The molecule `O=C(O)COc1ccc(C(=O)c2ccc(F)cc2)c2ccccc12` displayed a melting point of 105 to 108 °C.
Next, `COc1cc2ccc(C(=O)CCCCBr)cc2cc1OC`: 93 to 95 °C.
Under `Cc1nn(-c2c(Cl)cc(C(F)(F)F)cc2Cl)c(N)c1SC#N` stands 134 °C.
Next, `O=C(c1ccccc1)N1N=CCC1c1ccccc1` (centres undefined): 105 to 106 °C; `CC(C)(CC(N)=O)C(Br)(Br)Br`: 109 to 111 °C; `Cc1nc(N2C[C@@H](C)C[C@H](C)C2)c2nc(-c3ccccc3)cc-2[nH]1` (relative stereo): 226 to 227 °C.
Molecule `CCCC[C@H](NC(=O)OC(C)(C)C)C(=O)CCCc1cccs1` came in with a melting point of 50.5 to 52.5 °C.
Next, `Cn1ncc2ccc(OCCCCl)cc2c1=O`: 252 to 253 °C; `N#Cc1ccccc1SC1SCC(O)C(O)C1O` (centres undefined): 118 to 119 °C; `CCCNCC(=O)Nc1ccc2c(c1)C(=O)c1cc(NC(=O)CNCCC)ccc1C2=O`: 143 °C.
Next, `COc1ccc(C(=O)c2ccc([N+](=O)[O-])cc2)cc1OC`: 160 to 162 °C; `Oc1nn(-c2ccccn2)c(-c2ccccc2)c1Cc1ccccc1`: 115 to 116 °C.
Next, `CCOC(=O)c1[nH]ccc1OCC`: 81 to 83 °C; `CCCCCOc1ccc(C#N)cc1-c1cc(C(=N)Nc2cccc(C(F)(F)F)c2)ccc1OCCCCC`: 74 to 75 °C.
In turn, `CC(C)c1ccc(C#CC(C)N(O)C(N)=O)cc1` (centres undefined) returned a melting point of 154 to 156 °C.
Next, `C=C1N(c2ccccc2)C(=O)OC12CCN(CCC=C(c1ccc(F)cc1)c1ccc(F)cc1)CC2`: 136 to 138 °C.
Next, `CCc1cc(SCCc2cccc3cn(-c4ccc(C(F)(F)F)cc4)nc23)ccc1OCC(=O)O`: 115 to 117 °C.
Next, `O=C(N[C@@H](Cc1c[nH]cn1)C(=O)OCc1ccsc1)C(Cc1cccc2ccccc12)Cc1cccc2ccccc12`: 200 to 203 °C; `Cn1ncc(C(=O)N2CCOCC2)c1C(=O)Nc1ccn2nc(N3CCOCC3)nc2c1`: 206 to 208 °C.
`COc1cc(O)c2c(=O)[nH]c(-c3cc(C)c(O)c(C)c3)nc2c1`: the melting point is 291 to 293 °C.
For the molecule `COc1ccc(CCC(=O)c2ccc(O)cc2O)c(OC)c1C`, the melting point came out at 171 °C.
Under `CCc1nc2c(C)cc(C)nc2n1Cc1ccc(-c2ccccc2-c2c(N(C)C)c(=O)c2=O)cc1` stands 140 to 142 °C; under `CC(C)C1Cc2cnc3c(c2C1(O)CCN)CCO3` (centres undefined), 142 to 143 °C.
Next, `O=C(O)Cc1cccc(Oc2ccccc2Cl)c1O`: 103 to 105 °C.
Under `CCOC(=O)c1cc(C(=O)OCC)cc([N+](=O)[O-])c1` stands 83.5 °C; under `COc1ccc(C=Cc2nc3c(c(=O)n(C)c(=O)n3C)n2C)cc1`, greater than 320 °C.
In turn, `Cn1ccc(-c2ccc([N+](=O)[O-])o2)n1` gave a melting point of 163 to 164 °C.
Under `Cc1cc(C(C)NC(=O)NO)c(C)s1` (centres undefined) stands 124 to 126 °C; under `CCOC(=O)CCCCCCC1C(=O)NC(=O)N1CCC(O)C1CCCCC1` (centres undefined), 62 to 63 °C.
Under `CCN(C(=O)n1nnc2cc(C)cc(C)c21)c1ccccc1` stands 90 °C.
For `Clc1ccc(-c2ccc(CBr)cc2)cc1`, the melting point lay within 64 to 66 °C.
For the molecule `CCCOc1ccc(S(=O)(=O)N2CCN(CC)CC2)cc1-c1nc2cc3ncn(Cc4cccc(OC)c4)c3cc2c(=O)[nH]1`, the melting point lay within 117 to 118 °C.
Molecule `COc1cc(OC)cc(-n2c(-c3ccccc3)cc(=O)c(C)c2-c2ccccc2)c1` showed a melting point of 232 to 236 °C.
Molecule `O=C(Nc1c[nH]nc1C(=O)NC1CCCC1)c1ccccn1` gave a melting point of 240 to 241 °C.
For the molecule `N#CC1=C(N)N(c2ccccc2)CC1=O`, the melting point was in the range of 285 to 290 °C.
For the molecule `N#Cc1ccc(F)cc1C(F)(F)C(F)(F)c1ccccc1`, the melting point was in the range of 68 to 70 °C.
Under `c1ccc(N2CNCC23CCN(C2CCc4ccccc42)CC3)cc1` (racemic) stands greater than 250 °C; under `O=[N+]([O-])c1ccccc1OCc1ccccc1`, less than 50 °C.
Under `CN1CC=C(c2cn(C)c3ccc(NS(C)(=O)=O)cc23)CC1` stands 198 to 202 °C; under `O=C(O)CC1CCCc2c1n(Cc1ccc(Cl)cc1)c1c(F)cccc21` (centres undefined), 94 to 94.5 °C; under `CC(=O)Oc1cnccc1CCCOc1cccnc1Cc1cccc(Br)c1`, 122 to 128 °C.
`Cc1c(C#N)cc(C(C)(C)C)c(O)c1C(=O)Nc1ccc(Sc2ccc(Cl)cc2)cc1C(F)(F)F` returned a melting point of 193 to 195 °C.
Under `O=C(O)C(Cc1ccccc1)c1ccc([N+](=O)[O-])cc1` (centres undefined) stands 163 to 164 °C.
Next, `Cc1noc(NC(=O)N2CCN(c3nccc(-c4ccccc4F)n3)CC2)c1C`: 194 to 195 °C; `OCc1nc(-c2ccc3nc(-c4ccc(Cl)cc4)cn3c2)cs1`: 190 to 192 °C; `CNC(=NS(C)(=O)=O)SC`: 88 to 91 °C.
Under `Cc1cccc(C2(O)c3cc(NC(=O)CC(C)(C)C)c(C)c(C)c3OC2(C)C)c1` (centres undefined) stands 113 to 114 °C; under `CCNc1nc(-c2ccc(NC(=O)NCc3ccc(N)nc3)cc2)ccc1C(=O)NC`, 223 to 226 °C.
`COC(=O)[C@@H]1CSSCC(C)(C)C(=O)N1`: the melting point lay within 87 to 89 °C.
Take `C[Si](C)(C)Nc1ccn([Si](C)(C)C)c(=O)n1`: the melting point was in the range of 252 to 256 °C.
Under `CCCCc1nn(CC(=O)c2ccccc2)c(=O)n1Cc1ccc(-c2ccccc2-c2nnn[nH]2)cc1` stands 89 to 92 °C; under `N#CN=C(Nc1cnc(Cl)c(N)c1)NC1(c2ccccc2)CCC1`, 220 to 221 °C; under `O=C(O)CNCC(=O)NC[C@@H]1CC(c2ccc(-c3ccc(N4C[C@H](Cn5ccnn5)OC4=O)cc3F)cn2)=NO1`, 200 to 210 °C.
Under `[N-]=[N+]=Nc1nc(-c2ccccc2)nc(-c2ccccc2)n1` stands 115 to 117 °C; under `CN1C(=O)CCCc2ccc([N+](=O)[O-])cc21`, 151 to 152 °C; under `C=CCSC(=NC(=O)OC)NC(=O)NC(C)C`, 103 to 106 °C.
`c1ccc(Nc2ccnc3cn[nH]c23)cc1` returned a melting point of 222 to 224 °C.
Take `COc1cc(Nc2nccc(-c3ccc(NC4CCCCC4O)nc3)n2)cc(OC)c1OC` (centres undefined): the melting point was in the range of 147 to 148 °C.
For the molecule `COC(=O)C1C(c2ccccc2)C2(C(=O)OC)C(C)=NC1(C)CC2C[Si](C)(C)C` (centres undefined), the melting point lay within 152 to 155 °C.
Next, `Cc1cc(OC(=O)c2ccc(Cl)c(OCCn3cnnn3)c2Cl)n(C)n1`: 138 to 140 °C; `Oc1cc(O)cc(OCc2ccccc2)c1`: 85 to 86 °C; `O=[N+]([O-])c1ccc(Oc2ccc3c(c2)Nc2ccccc2S3)cc1`: 210 to 211 °C.
Under `CC(C)(C)OC(=O)NCC(COS(C)(=O)=O)NC(=O)OC(C)(C)C` (centres undefined) stands 94 to 96 °C; under `Cc1cc(-n2cncn2)c2cccc(OCc3c(Cl)ccc(S(=O)(=O)N4CCC[C@H]4C(=O)NCCCN(C)C)c3Cl)c2n1`, 105 °C.
As for `Cc1c(NC(=O)c2ccc(OCC3CC3)cc2)ccc2cc(CNCC(C)(C)O)n(C)c12`, the melting point stood at 180 °C.
Under `C=Cn1cc(C(=O)OCC)c(=O)c2cc(F)c(N3CCN(C)CC3)cc21` stands 186 to 188 °C; under `CCCCc1nc2c(n1Cc1ccc(-c3ccccc3S(N)(=O)=O)cc1)C(=O)C(F)CS2` (centres undefined), 208 °C.
Next, `Cc1ccc(S(=O)(=O)NC(=O)N2C(=O)C(C)N2C(c2ccccc2)c2ccccc2)cc1` (centres undefined): 155 to 159 °C; `CCCN(CCC)C1Cc2cc3c(cc2C1)C(=O)N(c1ccc(C(N)=O)cc1)C3=O`: 275 to 276 °C.
Next, `COc1ccc(S(=O)(=O)c2ccc3cc(Br)ccc3c2)cc1`: 180 to 181 °C; `NS(=O)(=O)c1ccc(NC(=O)Nc2cccc([N+](=O)[O-])c2)cc1`: 246 to 248 °C; `O=C(COc1ccc(Cl)cc1)N1CCc2occc2C1CN1CCC(O)C1` (centres undefined): 43 to 45 °C.
As to `CCOC(=O)C1=C(COCCCCO)NC(C)=C(C(=O)OC)C1c1cccc(Cl)c1Cl` (centres undefined), the melting point is 103 to 104 °C.
Next, `CCOC(=O)C(=CNc1ccnn1Cc1ccncc1)C(=O)OCC`: 95 to 97 °C; `CC(=O)Oc1ccc(OC(C)=O)c(-c2ccc(C)cc2)c1`: 94 to 96 °C.
Under `O=C(Oc1ccccc1)Sc1nc2ccccc2n1C1CCN(C(=O)Oc2ccccc2)CC1` stands 200 to 203 °C.
